Here are results for ten compounds from paper PMC10384440 (Viruses, 2023).

What all share (format): cell-based
Data set [1] in a line: Cytotoxic effect on Huh-7 cells, cell viability assay with resazurin. The following applies: human.
The subject of data set [2] is Huh-7 cells. Described as above. The note with it: for effect on cell viability at 100 µM: highest concentration evaluated.
Data set [3] relates to DENV-2 New Guinea. Put plainly: Antiviral screening: NS1 protein production in DENV-2 infected Huh-7 cells. The following applies: for effect on NS1 production vs viral control: DENV-2 infected Huh-7, 24 h, non-cytotoxic concentrations (between 40 and 100 µM); for NS1 production: DENV-2 infected Huh-7, MOI 1, 24 h, compounds at non-cytotoxic concentrations (between 40 and 100 µM), mycophenolic acid 20 µM, relative to viral control.

Data set [4] deals with DENV-2 subgenomic replicon in Huh-7 cells. As to the kind of experiment: NS5 protein production in Huh-7 DENV-2 replicon cells (ELISA).
The test system of data set [5] is DENV-2. Put plainly: Viral RNA production of DENV-2 in infected Huh-7 cells (RT-qPCR). The note with it: 50 µM; DENV-2 infected Huh-7; normalized using GAPDH; vs viral control. A general note: In qPCR the cycle at which signal appears reflects the starting amount.
Where [6] appears, read: Huh-7 cells, Huh-7 cell line, resazurin, read-out: CC50.
[7] abbreviates: Huh-7, all evaluated concentrations.

Like-named read-outs stand apart in the source and are kept apart here.

By CC50 is commonly meant the concentration at which the toxic effect on the cells reaches its halfway point. Turning to `O=C(NCCc1ccccc1)C1Cc2c([nH]c3ccccc23)C2c3ccccc3C(=O)N12` (stereo not drawn) [R55], the CC50 in data set [1] (setting [6]) was above 100 µM. In addition, in data set [2] (setting [7]), the “effect on cell viability at the evaluated concentrations” value is listed as “did not reduce cell viability”. The “effect on NS1 production vs viral control” value (from here on “effect … vs viral control”) in data set [3] was “reduction in NS1 production”.
Broadly, the viability is the share of living cells, or the viability signal relative to a control. What is called IC50 is the point on the concentration scale where inhibition reaches its midpoint. A low value points to greater potency. In the case of `CC1(C)CC(NC(=O)C2Cc3c([nH]c4ccccc34)C3c4ccccc4C(=O)N23)CC(C)(C)N1` (stereo not drawn) [M78], the CC50 in data set [1] (setting [6]) is 60.8 µM. In data set [1] (Huh-7 cells, Huh-7, at 12.5, 25, and 50 µM, read-out: cellular viability), the viability was around 100%. Moreover, the “effect on cell viability at 100 µM” value in data set [2] (Huh-7) is reported as “loss of viability”. For the same compound, in data set [3], the “effect … vs viral control” value is “reduction in NS1 production” and the NS1 production is around 38%. The “selectivity index (SI), CC50/IC50” value in data set [4] (CC50 Huh-7 / IC50 NS5 production) is 2.5. In data set [4] (Dengue virus, DENV2, Huh-7 DENV-2 replicon, dose-response curve, 24 h), this compound yielded an IC50 of 24.6 µM. Further, the “reduction of NS5 protein expression” value in data set [4] (Huh-7 DENV-2 replicon, 50 µM) is recorded as 70%. This compound also had an NS5 production in data set [4] (Huh-7 DENV-2 replicon, 50 µM, 24 h, compared to VC (100%)) of around 30%. Further, the “reduction of DENV-2 viral RNA (relative expression, 2^−ΔΔCT)” value in data set [5] is 1.7 times.
On to `O=C(NCCc1ccccc1F)C1Cc2c([nH]c3ccccc23)C2c3ccccc3C(=O)N12` (stereo not drawn) [MR41], for which, in data set [1] (setting [6]), the CC50 was above 100 µM. Moreover, the “effect on cell viability at the evaluated concentrations” value in data set [2] (setting [7]) is on record as “no effect was evidenced”. Also, the “effect … vs viral control” value in data set [3] is “reduction in NS1 production”.
For the compound `Cc1ccc(CNC(=O)C2Cc3c([nH]c4ccccc34)C3c4ccccc4C(=O)N23)cc1` (stereo not drawn) [MR94], the CC50 in data set [1] (setting [6]) was found to be 46.2 µM. Besides, the “effect … vs viral control” value in data set [3] is listed as “except for treatment with MR94”.
For the compound `O=C(NCCc1c[nH]c2ccccc12)C1Cc2c([nH]c3ccccc23)C2c3ccccc3C(=O)N12` (stereo not drawn) [MR25], in data set [1] (setting [6]), the 50% cytotoxic concentration (CC50) worked out at 70.6 µM. In data set [3], the “effect … vs viral control” value is recorded as “reduction in NS1 production” and the NS1 production is given as around 45%.
For `COc1c(C)c2c(c(O)c1C/C=C(\C)CCC(=O)O)C(=O)OC2` [mycophenolic acid, Mycophenolic acid, reference compound], in data set [3], the NS1 production result is listed as “around 63%”.
On to `O=C(NCc1ccccc1)C1Cc2c([nH]c3ccccc23)C2c3ccccc3C(=O)N12` (stereo not drawn) [R32], for which, in data set [1] (setting [6]), the CC50 is above 100 µM. In data set [2] (setting [7]), the “effect on cell viability at the evaluated concentrations” value is on record as “did not reduce cell viability”. In addition, the “effect … vs viral control” value in data set [3] is on record as “reduction in NS1 production”.
Take `O=C(NCCc1ccc(Cl)cc1)C1Cc2c([nH]c3ccccc23)C2c3ccccc3C(=O)N12` (stereo not drawn) [R53]: the CC50 in data set [1] (setting [6]) was determined as 30 µM. In data set [2] (setting [7]), the “effect on cell viability at the evaluated concentrations” value is recorded as “reduced cell viability”.
Regarding `Cc1cc(C)cc(NC(=O)C(NC(=O)N2CC3CC(C2)c2cccc(=O)n2C3)C(C)C)c1` (stereo not drawn) [R07], in data set [1] (CC50), the CC50 is above 100 µM. Also, the “effect on cell viability at the evaluated concentrations” value in data set [2] is on record as “did not reduce cell viability”. Besides, the “effect … vs viral control” value in data set [3] is listed as “reduction in NS1 production”.
Regarding `O=C(Nc1ccc2c(c1)OCCO2)[C@@H]1CCCN1C(=O)[C@@H]1Cc2ccccc2CN1` [M76], in data set [1] (setting [6]), the CC50 was above 100 µM. Besides, the “effect on cell viability at 100 µM” value in data set [2] (Huh-7) is “no effect was observed”. The “effect … vs viral control” value in data set [3] was “reduction in NS1 production”.
